Test results: PubChem BioAssay AID328 (DTP/NCI, 2004)
Several values for one entry are separate records, joined by “and”; a condition that tells them apart may be missing. Equal values may be shown once. Toxic doses and inconclusive results are not listed.

Tested on: BDF1 mice, P388 leukemia ip, median survival T/C
Experiment: NCI In Vivo Anticancer Drug Screen. Data for tumor model P388 Leukemia (intraperitoneal) in B6D2F1 (BDF1) mice
Conditions: endpoint: median survival time, higher = longer survival
Summary of the method: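 Each value expresses how treatment altered survival: treated-mouse outcome over vehicle-mouse outcome, both groups bearing the transplanted tumour.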

[1] = dose: 100.0 mg/kg/injection, schedule: Q04DX003 (ip), vehicle: saline with Tween-80
[2] = dose: 200.0 mg/kg/injection, schedule: Q04DX003 (ip), vehicle: saline with Tween-80
[3] = dose: 6.25 mg/kg/injection, schedule: Q01DX009 (ip), vehicle: saline
[4] = dose: 12.5 mg/kg/injection, schedule: Q01DX009 (ip), vehicle: saline
[5] = dose: 50.0 mg/kg/injection, schedule: Q04DX003 (ip), vehicle: saline with Tween-80
[6] = dose: 100.0 mg/kg/injection, schedule: Q04DX003 (ip), vehicle: saline
[7] = dose: 200.0 mg/kg/injection, schedule: Q04DX003 (ip), vehicle: saline
[8] = dose: 400.0 mg/kg/injection, schedule: Q04DX003 (ip), vehicle: saline
[9] = dose: 50.0 mg/kg/injection, schedule: Q01DX009 (ip), vehicle: saline with Tween-80
[10] = dose: 100.0 mg/kg/injection, schedule: Q01DX009 (ip), vehicle: saline with Tween-80
[11] = dose: 200.0 mg/kg/injection, schedule: Q01DX009 (ip), vehicle: saline with Tween-80
[12] = dose: 25.0 mg/kg/injection, schedule: Q04DX003 (ip), vehicle: saline
[13] = dose: 50.0 mg/kg/injection, schedule: Q04DX003 (ip), vehicle: saline

Cc1nc2ccccc2c(=O)n1C(C)(C)CCl
T/C [1]: 100 % of control | T/C [2]: 109 % of control

CCC(=N\NC(=S)NCCN(CC)CC)/C(C)=N/NC(=S)NCCN(CC)CC
T/C (dose: 1.56 mg/kg/injection, schedule: Q01DX009 (ip), vehicle: saline): 116 % of control | T/C (dose: 3.13 mg/kg/injection, schedule: Q01DX009 (ip), vehicle: saline): 105 % of control | T/C [3]: 106 % of control | T/C [4]: 109 % of control and 118 % of control

C1=CCONC1
T/C [5]: 99 % of control | T/C [1]: 104 % of control | T/C [6]: 103 % of control | T/C [2]: 100 % of control | T/C [7]: 120 % of control | T/C [8]: 93 % of control

Cc1cc2nc3c(=O)[nH]c(=O)nc-3n(CC(O)C(O)C(O)C(O)CO)c2cc1C (configuration not stated)
T/C (dose: 25.0 mg/kg/injection, schedule: Q01DX010 (ip), vehicle: saline): 109 % of control | T/C (dose: 50.0 mg/kg/injection, schedule: Q01DX010 (ip), vehicle: saline): 95 % of control and 100 % of control | T/C (dose: 100.0 mg/kg/injection, schedule: Q01DX010 (ip), vehicle: saline): 90 % of control and 95 % of control and 104 % of control | T/C (dose: 200.0 mg/kg/injection, schedule: Q01DX010 (ip), vehicle: saline): 100 % of control and 114 % of control | T/C (dose: 400.0 mg/kg/injection, schedule: Q01DX010 (ip), vehicle: saline): 104 % of control and 110 % of control and 114 % of control

O=C1OC(=O)C2C1C1(Cl)C(Cl)=C(Cl)C2(Cl)C2C(=O)OC(=O)C21 (configuration not stated)
T/C [6]: 91 % of control | T/C [7]: 108 % of control | T/C [8]: 104 % of control

O=C([CH-]C(=O)C(F)(F)F)c1ccccc1.O=C([CH-]C(=O)C(F)(F)F)c1ccccc1.O=C([CH-]C(=O)C(F)(F)F)c1ccccc1.O=C([CH-]C(=O)C(F)(F)F)c1ccccc1.[Eu+3].c1ccncc1
T/C (dose: 100.0 mg/kg/injection, schedule: Q01DX009 (ip), vehicle: Klucel (hydroxypropylcellulose) (HPC)): 113 % of control

O=S1(=O)C2CCCCC2(N2CCOCC2)C1c1ccccc1 (configuration not stated)
T/C (dose: 100.0 mg/kg/injection, schedule: Q04DX003 (ip), vehicle: other): 100 % of control | T/C (dose: 178.0 mg/kg/injection, schedule: Q04DX003 (ip), vehicle: other): 109 % of control | T/C (dose: 200.0 mg/kg/injection, schedule: Q04DX003 (ip), vehicle: other): 104 % of control | T/C (dose: 266.0 mg/kg/injection, schedule: Q04DX003 (ip), vehicle: other): 104 % of control | T/C (dose: 400.0 mg/kg/injection, schedule: Q04DX003 (ip), vehicle: other): 100 % of control

CN(C)C(=S)NCc1ccccc1
T/C [9]: 109 % of control | T/C [10]: 100 % of control | T/C [11]: 100 % of control

CC(C)(CC(=O)O)c1ccccc1
T/C [12]: 89 % of control and 109 % of control | T/C [13]: 104 % of control and 120 % of control | T/C [6]: 102 % of control and 106 % of control | T/C [7]: 102 % of control and 110 % of control and 113 % of control | T/C [8]: 105 % of control

[Cl][Co][Cl].[NH-]CCC[NH-].[NH-]CCC[NH-]
T/C [12]: 105 % of control | T/C [13]: 110 % of control

CC(=O)OCc1c(COC(C)=O)c(-c2ccccc2)n2c1CCC2
T/C (dose: 6.25 mg/kg/injection, schedule: Q01DX009 (ip), vehicle: Klucel (hydroxypropylcellulose) (HPC)): 107 % of control

Cc1ccc(C(CC(=O)O)CC(=O)O)c(O)c1
T/C (dose: 100.0 mg/kg/injection, schedule: Q01DX009 (ip), vehicle: gum acacia): 100 % of control | T/C (dose: 100.0 mg/kg/injection, schedule: Q04DX003 (ip), vehicle: gum acacia): 111 % of control | T/C (dose: 200.0 mg/kg/injection, schedule: Q01DX009 (ip), vehicle: gum acacia): 103 % of control | T/C (dose: 200.0 mg/kg/injection, schedule: Q04DX003 (ip), vehicle: gum acacia): 103 % of control | T/C (dose: 400.0 mg/kg/injection, schedule: Q01DX009 (ip), vehicle: gum acacia): 89 % of control | T/C (dose: 400.0 mg/kg/injection, schedule: Q04DX003 (ip), vehicle: gum acacia): 88 % of control

CCCCOCN(COCCCC)C(C)Cc1ccccc1 (configuration not stated)
T/C [9]: 122 % of control

Cc1c2c(ccc3ccccc32)c[n+]2ccccc12
T/C [3]: 105 % of control | T/C [4]: 122 % of control | T/C (dose: 12.5 mg/kg/injection, schedule: Q04DX003 (ip), vehicle: saline): 118 % of control | T/C [12]: 122 % of control

CCOC(=O)C[n+]1c(C)sc2ccccc21
T/C (dose: 50.0 mg/kg/injection, schedule: Q01DX005 (ip), vehicle: saline): 99 % of control | T/C (dose: 100.0 mg/kg/injection, schedule: Q01DX005 (ip), vehicle: saline): 92 % of control | T/C (dose: 200.0 mg/kg/injection, schedule: Q01DX005 (ip), vehicle: saline): 101 % of control

Nc1c2ccccc2cc2ccccc12
T/C [9]: 108 % of control | T/C [5]: 108 % of control | T/C [10]: 108 % of control | T/C [1]: 95 % of control | T/C [11]: 113 % of control | T/C [2]: 91 % of control

CC(C)NC(=O)N(C(=O)C(F)(F)F)C(C)C
T/C [9]: 105 % of control | T/C [10]: 94 % of control | T/C [11]: 95 % of control

O=c1[nH]ccc2c(O)cccc12
T/C [9]: 96 % of control | T/C [5]: 100 % of control | T/C [10]: 92 % of control | T/C [1]: 95 % of control | T/C [11]: 96 % of control | T/C [2]: 91 % of control

CC(=O)N(C(C)=O)c1cc([N+](=O)[O-])ccc1C
T/C [1]: 106 % of control | T/C [2]: 93 % of control

NC(=O)NN=C1CSSC1
T/C (dose: 0.78 mg/kg/injection, schedule: Q01DX009 (ip), vehicle: saline with Tween-80): 103 % of control | T/C (dose: 0.78 mg/kg/injection, schedule: Q04DX003 (ip), vehicle: saline with Tween-80): 104 % of control | T/C (dose: 1.56 mg/kg/injection, schedule: Q01DX009 (ip), vehicle: saline with Tween-80): 94 % of control | T/C (dose: 1.56 mg/kg/injection, schedule: Q04DX003 (ip), vehicle: saline with Tween-80): 91 % of control | T/C (dose: 3.12 mg/kg/injection, schedule: Q01DX009 (ip), vehicle: saline with Tween-80): 92 % of control | T/C (dose: 3.12 mg/kg/injection, schedule: Q04DX003 (ip), vehicle: saline with Tween-80): 113 % of control | T/C (dose: 6.25 mg/kg/injection, schedule: Q01DX009 (ip), vehicle: saline with Tween-80): 92 % of control | T/C (dose: 6.25 mg/kg/injection, schedule: Q04DX003 (ip), vehicle: saline with Tween-80): 100 % of control | T/C (dose: 12.5 mg/kg/injection, schedule: Q01DX009 (ip), vehicle: saline with Tween-80): 94 % of control | T/C (dose: 12.5 mg/kg/injection, schedule: Q04DX003 (ip), vehicle: saline with Tween-80): 95 % of control

O=NN(CCCl)C(=O)Nc1cc(NC(=O)N(CCCl)N=O)cc(C(=O)O)c1
T/C (dose: 0.03 mg/kg/injection, schedule: Q04DX003 (ip), vehicle: saline with Tween-80): 116 % of control | T/C (dose: 0.06 mg/kg/injection, schedule: Q04DX003 (ip), vehicle: saline with Tween-80): 120 % of control and 122 % of control | T/C (dose: 0.5 mg/kg/injection, schedule: Q04DX003 (ip), vehicle: saline with Tween-80): 150 % of control | T/C (dose: 0.6 mg/kg/injection, schedule: Q04DX003 (ip), vehicle: saline with Tween-80): 163 % of control | T/C (dose: 1.0 mg/kg/injection, schedule: Q04DX003 (ip), vehicle: saline with Tween-80): 170 % of control | T/C (dose: 1.8 mg/kg/injection, schedule: Q04DX003 (ip), vehicle: saline with Tween-80): 195 % of control | T/C (dose: 2.0 mg/kg/injection, schedule: Q04DX003 (ip), vehicle: saline with Tween-80): 200 % of control | T/C (dose: 2.3 mg/kg/injection, schedule: Q04DX003 (ip), vehicle: saline with Tween-80): 215 % of control | T/C (dose: 2.5 mg/kg/injection, schedule: Q04DX003 (ip), vehicle: saline with Tween-80): 195 % of control | T/C (dose: 3.5 mg/kg/injection, schedule: Q04DX003 (ip), vehicle: saline with Tween-80): 265 % of control | T/C (dose: 3.7 mg/kg/injection, schedule: Q04DX003 (ip), vehicle: saline with Tween-80): 186 % of control | T/C (dose: 5.5 mg/kg/injection, schedule: Q04DX003 (ip), vehicle: saline with Tween-80): 235 % of control | T/C (dose: 6.0 mg/kg/injection, schedule: Q04DX003 (ip), vehicle: saline with Tween-80): 222 % of control | T/C (dose: 8.5 mg/kg/injection, schedule: Q04DX003 (ip), vehicle: saline with Tween-80): 275 % of control | T/C (dose: 13.0 mg/kg/injection, schedule: Q04DX003 (ip), vehicle: saline with Tween-80): 250 % of control and 300 % of control | T/C (dose: 18.0 mg/kg/injection, schedule: Q04DX003 (ip), vehicle: saline with Tween-80): 272 % of control | T/C (dose: 20.0 mg/kg/injection, schedule: Q04DX003 (ip), vehicle: saline with Tween-80): 272 % of control and 300 % of control and 218 % of control | T/C (dose: 30.0 mg/kg/injection, schedule: Q04DX003 (ip), vehicle: saline with Tween-80): 235 % of control and 272 % of control | T/C (dose: 45.0 mg/kg/injection, schedule: Q04DX003 (ip), vehicle: saline with Tween-80): 95 % of control
